The values that follow come from patent US7557092B2, “Purinergic modulation of smell” (University of Utah Research Foundation, priority 2002, dated 2009).

Assay [1] deals with ORNs in mouse olfactory epithelium slices. Kind of assay: confocal calcium imaging of fluo-4 AM loaded olfactory epithelium slices, ORNs. Type of assay: cell-based. The following applies: for evoked calcium transients in olfactory epithelial slices: superfused onto olfactory epithelial slices (ORNs and sustentacular cells); for agonist-evoked calcium transients in ORNs: 10 μM agonist superfused onto slice. From the text: (§1) To study the effects of ATP on odor responses, acutely prepared slices of mouse olfactory epithelium were used. Confocal imaging of fluo-4 AM-loaded olfactory epithelium slices allows simultaneous recording from identified structures within the olfactory epithelium, i.e., both ORNs and sustentacular cells. […] The difference in robustness can be due to poor access to the ATP stimulus: odorant receptors are on the cilia of the ORNs, which extend beyond the outer edge of the olfactory epithelium, whereas purinergic receptors are located deeper within the olfactory epithelium. […] The latency of activation for the ATP-evoked calcium transient was shorter in the ORN (FIG. 3B2, solid up arrowhead) than in sustentacular cells (FIG. 3B3, open down arrowhead). Collectively, this was consistent with ORNs expressing the faster P2X receptors, and the sustentacular cells expressing the slower G-protein coupled P2Y receptors.
(§2) To prepare olfactory epithelium slices, neonatal mice (postnatal day 0-6) were quickly decapitated, and the skin and lower jaw were removed. Tissue was mounted in ice cold Ringers onto a vibratome-cutting block and 300 μm slices were made. Primary cultures of mouse ORNs were made using the same protocol and culture conditions as described for rat olfactory receptor neurons (Vargas and Lucero, 1999a). Briefly, tissue was placed in divalent cation-free Ringers containing 10 mg/ml bovine serum albumin, 1 mg/ml deoxyribonuclease II and 44 U/ml dispase, incubated at 37° C. for 45 min. The tissue was washed, triturated, and filtered through a […] mesh and […] cells were plated onto concanavalin A-coated coverslips and allowed to settle for 20 min. An additional 1.5 ml of culture medium was added (DMEM supplemented with […] ascorbic acid, 1X insulin-transferrin-seleniumX (GIBCO BRL), 2 mM glutamine, 100 U/ml penicillin G and […] streptomycin).
(§3) [Ca^2+]i was determined using confocal imaging of fluo-4 AM (18 μM; Molecular Probes) loaded cells and slices. Cells or slices were placed in a laminar flow chamber (Warner Instruments) and perfused continuously with Ringers solution at a flow rate of 1.5-2.0 ml/min. Ringers contained (mM): 140 NaCl, 5 KCl, 1 MgCl2, 2 CaCl2, 10 HEPES, 10 glucose, […] and 400 nM tetrodotoxin. Test solutions were applied using bath exchange and a small volume loop injector (200 μl). A Zeiss LSM 510 confocal laser scanning system was used for data collection and analysis. Time series experiments were performed collecting 1400×700 pixel images at 0.2-0.4 Hz. The fluorometric signals obtained are expressed as relative fluorescence change, ΔF/F═(F−F0)/F0, where F0 is the basal fluorescence level. Increases in F greater than 10% above baseline noise were considered responses.

For the next assay, the target named is T1, P2X5 (Rattus norvegicus, UniProt P51578).
T1 construct: host or cells: Xenopus oocytes
T1 sequence (P51578 1-455): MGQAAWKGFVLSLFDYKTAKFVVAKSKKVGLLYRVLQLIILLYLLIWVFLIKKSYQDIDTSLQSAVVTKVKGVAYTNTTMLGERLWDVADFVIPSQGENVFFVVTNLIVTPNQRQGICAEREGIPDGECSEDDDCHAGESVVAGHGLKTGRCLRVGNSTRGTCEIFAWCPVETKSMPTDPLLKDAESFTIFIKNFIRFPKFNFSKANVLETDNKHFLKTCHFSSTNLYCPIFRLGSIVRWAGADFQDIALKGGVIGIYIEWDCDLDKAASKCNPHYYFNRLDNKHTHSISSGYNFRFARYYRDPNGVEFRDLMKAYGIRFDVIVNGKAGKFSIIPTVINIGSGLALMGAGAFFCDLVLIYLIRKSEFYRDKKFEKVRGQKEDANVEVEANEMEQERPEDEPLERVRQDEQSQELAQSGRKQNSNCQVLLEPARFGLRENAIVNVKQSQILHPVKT
Conditions: cDNA from Rat ganglia; cited from earlier work.

Assay [2] concerns the target P2Y1 (Rattus norvegicus, UniProt P49651). Conditions: cited from earlier work.
Another assay deals with T2, P2X4 (Rattus norvegicus, UniProt P51577).
T2 construct: host or cells: Xenopus oocytes
T2 sequence (P51577 1-388): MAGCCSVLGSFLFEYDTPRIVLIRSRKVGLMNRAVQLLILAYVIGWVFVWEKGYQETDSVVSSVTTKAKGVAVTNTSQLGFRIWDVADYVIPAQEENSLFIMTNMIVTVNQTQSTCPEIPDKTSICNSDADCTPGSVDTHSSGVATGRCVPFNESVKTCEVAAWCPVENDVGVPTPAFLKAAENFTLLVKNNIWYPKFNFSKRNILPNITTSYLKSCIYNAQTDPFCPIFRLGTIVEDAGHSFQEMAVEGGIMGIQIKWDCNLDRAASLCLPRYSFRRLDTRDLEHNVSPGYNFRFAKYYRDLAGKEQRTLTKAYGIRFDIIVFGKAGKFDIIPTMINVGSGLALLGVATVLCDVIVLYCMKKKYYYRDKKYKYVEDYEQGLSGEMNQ
Conditions: cDNA from Rat superior cervical ganglion; cited from earlier work.

For a further assay, the target named is T3, P2X2 (Rattus norvegicus, UniProt P49653).
T3 construct: host or cells: Xenopus oocytes
T3 sequence (P49653 1-472): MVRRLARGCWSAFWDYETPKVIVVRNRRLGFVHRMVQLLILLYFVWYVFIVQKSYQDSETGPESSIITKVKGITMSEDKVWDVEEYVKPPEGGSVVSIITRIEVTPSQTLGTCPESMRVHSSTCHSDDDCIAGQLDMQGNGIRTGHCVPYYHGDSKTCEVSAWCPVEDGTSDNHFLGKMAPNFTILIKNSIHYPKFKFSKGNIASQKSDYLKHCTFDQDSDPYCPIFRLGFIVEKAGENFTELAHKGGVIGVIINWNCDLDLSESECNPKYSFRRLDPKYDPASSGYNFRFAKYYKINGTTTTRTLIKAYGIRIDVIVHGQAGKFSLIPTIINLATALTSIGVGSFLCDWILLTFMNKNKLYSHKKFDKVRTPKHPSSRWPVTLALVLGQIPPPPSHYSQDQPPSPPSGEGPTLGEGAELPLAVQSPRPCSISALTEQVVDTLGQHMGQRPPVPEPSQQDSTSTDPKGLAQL
Conditions: cDNA from Rat PC12 cells; cited from earlier work.

The next assay deals with T4, P2X6 (Rattus norvegicus, UniProt P51579).
T4 construct: host or cells: Xenopus oocytes
The following applies: cDNA from Rat superior cervical ganglion; cited from earlier work.

The target of another assay is T5, P2Y11 (Homo sapiens, UniProt Q96G91).
T5 sequence (Q96G91 1-374): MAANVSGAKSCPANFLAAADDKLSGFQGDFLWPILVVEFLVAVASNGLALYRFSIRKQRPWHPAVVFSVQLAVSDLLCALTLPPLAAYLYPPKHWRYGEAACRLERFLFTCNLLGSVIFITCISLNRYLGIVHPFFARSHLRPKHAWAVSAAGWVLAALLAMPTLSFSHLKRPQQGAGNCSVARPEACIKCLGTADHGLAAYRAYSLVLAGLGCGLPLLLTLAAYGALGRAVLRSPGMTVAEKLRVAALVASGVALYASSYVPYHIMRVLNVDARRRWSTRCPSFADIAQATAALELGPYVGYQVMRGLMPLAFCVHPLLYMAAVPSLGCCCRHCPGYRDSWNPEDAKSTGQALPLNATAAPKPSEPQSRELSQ
The following applies: cDNA from Human placenta; cited from earlier work.

In assay [3] the test system is odor responses of mouse ORNs in olfactory epithelium slices. Nature of the assay: co-application of odor and purinergic receptor agonist, calcium transients in olfactory epithelium slices. The class given is cell-based.
Assay [4] deals with P2Y1 (Gallus gallus, UniProt P34996). Conditions: cDNA from Chick brain; cited from earlier work.
The next assay concerns the target T6, P2X7 (Rattus norvegicus, UniProt Q64663).
T6 construct: host or cells: Xenopus oocytes
T6 sequence (Q64663 1-595): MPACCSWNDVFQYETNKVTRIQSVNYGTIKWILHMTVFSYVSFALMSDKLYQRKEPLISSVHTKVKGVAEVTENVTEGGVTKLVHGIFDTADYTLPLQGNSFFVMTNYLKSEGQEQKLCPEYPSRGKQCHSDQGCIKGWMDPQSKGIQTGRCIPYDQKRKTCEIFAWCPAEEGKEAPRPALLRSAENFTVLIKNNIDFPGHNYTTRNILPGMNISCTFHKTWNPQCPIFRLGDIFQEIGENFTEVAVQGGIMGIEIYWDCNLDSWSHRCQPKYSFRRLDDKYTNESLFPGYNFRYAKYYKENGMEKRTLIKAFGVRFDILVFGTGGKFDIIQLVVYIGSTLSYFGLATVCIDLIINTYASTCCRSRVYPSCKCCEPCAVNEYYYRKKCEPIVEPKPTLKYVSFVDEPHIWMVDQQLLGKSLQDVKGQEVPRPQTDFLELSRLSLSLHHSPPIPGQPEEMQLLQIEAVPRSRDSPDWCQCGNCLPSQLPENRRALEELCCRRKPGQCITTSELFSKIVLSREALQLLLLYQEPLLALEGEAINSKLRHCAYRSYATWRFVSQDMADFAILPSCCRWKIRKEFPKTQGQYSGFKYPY
The following applies: cDNA from Rat macrophage and brain; cited from earlier work.

Assay [5] addresses P2Y1 (Meleagris gallopavo, UniProt P49652). The following applies: cDNA from Turkey brain; cited from earlier work.
The test system of assay [6] is sustentacular cells in mouse olfactory epithelium slices. Nature of the assay: confocal calcium imaging of fluo-4 AM loaded olfactory epithelium slices, sustentacular cells. Type of assay: cell-based. The following applies: for agonist-evoked calcium transients in sustentacular cells: 10 μM agonist superfused onto slice.
Source text: as §1, §2, §3

[7] abbreviates: ORNs, PPADS 25 μm, reversible, n=5.
[8] abbreviates: sustentacular cells, PPADS, n=30.
Setting [9] is: co-application of 10 μM βγ-methylene ATP and odor, 2/16 cells.

Where two headings read alike, the source gives them in different places.

Chain of P2Y1 (Rattus norvegicus, UniProt P49651) (P49651 whole entry): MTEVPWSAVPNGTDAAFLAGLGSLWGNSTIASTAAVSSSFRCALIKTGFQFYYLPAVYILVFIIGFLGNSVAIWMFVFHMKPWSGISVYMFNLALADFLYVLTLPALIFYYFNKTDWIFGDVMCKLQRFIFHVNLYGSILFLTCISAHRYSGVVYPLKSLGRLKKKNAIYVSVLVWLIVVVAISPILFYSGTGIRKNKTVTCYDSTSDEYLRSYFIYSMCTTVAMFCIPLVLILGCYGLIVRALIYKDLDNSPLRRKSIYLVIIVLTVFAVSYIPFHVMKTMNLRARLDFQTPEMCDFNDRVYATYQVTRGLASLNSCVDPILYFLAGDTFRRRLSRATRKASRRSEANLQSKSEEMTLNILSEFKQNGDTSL
Chain of P2Y1 (Gallus gallus, UniProt P34996) (P34996 whole entry): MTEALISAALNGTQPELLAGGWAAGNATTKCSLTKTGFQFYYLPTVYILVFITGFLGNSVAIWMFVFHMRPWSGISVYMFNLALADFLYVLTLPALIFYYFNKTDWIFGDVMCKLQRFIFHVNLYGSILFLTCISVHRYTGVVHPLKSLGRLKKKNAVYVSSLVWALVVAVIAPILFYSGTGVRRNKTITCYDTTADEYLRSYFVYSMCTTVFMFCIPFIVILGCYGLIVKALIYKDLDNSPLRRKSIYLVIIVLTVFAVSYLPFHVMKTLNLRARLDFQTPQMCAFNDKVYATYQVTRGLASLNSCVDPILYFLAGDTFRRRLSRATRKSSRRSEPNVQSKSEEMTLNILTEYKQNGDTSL
T4 sequence (P51579 whole entry): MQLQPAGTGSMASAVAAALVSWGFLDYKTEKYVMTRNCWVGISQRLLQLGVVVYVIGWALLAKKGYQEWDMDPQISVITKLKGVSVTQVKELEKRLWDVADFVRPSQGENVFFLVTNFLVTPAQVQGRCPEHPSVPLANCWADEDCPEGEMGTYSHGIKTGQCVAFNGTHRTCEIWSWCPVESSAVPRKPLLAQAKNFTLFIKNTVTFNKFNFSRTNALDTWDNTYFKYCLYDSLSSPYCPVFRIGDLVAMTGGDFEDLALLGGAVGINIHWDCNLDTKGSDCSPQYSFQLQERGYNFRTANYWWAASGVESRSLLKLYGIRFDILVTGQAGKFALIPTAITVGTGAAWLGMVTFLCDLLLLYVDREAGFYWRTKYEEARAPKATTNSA
Chain of P2Y1 (Meleagris gallopavo, UniProt P49652) (P49652 whole entry, the tested form may be a part): as the sequence (P34996 whole entry) above, with T28S counted along it

With `Nc1ncnc2c1ncn2[C@@H]1O[C@H](CO)[C@@H](O)[C@H]1O` [Adenosine], the “evoked calcium transients in olfactory epithelial slices” value in [1] is “never observed”.
Turning to `Nc1ncnc2c1ncn2[C@@H]1O[C@H](COP(=O)(O)CP(=O)(O)OP(=O)(O)O)[C@@H](O)[C@H]1O` [α,β-meATP, α,β-methylene ATP], the Agonist activity entry at P2X5 is “α,β-meATP inactive”; at P2Y1 [2] (cDNA from Rat insulinoma cells), “(α,β-meATP inactive)”; at P2X4 it was “ATP; α,β-meATP inactive”; at P2X2 it was 2MeSATP > ATP; α,β-meATP inactive; on P2X6, “ATP > 2MeSATP > ADP; α,β-meATP inactive”.
Turning to `O=c1ccn([C@@H]2O[C@H](COP(=O)(O)OP(=O)(O)O)[C@@H](O)[C@H]2O)c(=O)[nH]1` [UDP], at P2Y11, the Agonist activity result was “(UTP, UDP inactive)”.
Take `O=c1ccn([C@@H]2O[C@H](COP(=O)(O)OP(=O)(O)OP(=O)(O)O)[C@@H](O)[C@H]2O)c(=O)[nH]1` [UTP]: the Agonist activity entry on P2Y1 [2] (cDNA from Rat ileal myocytes) is “(UTP inactive)”; at P2Y11, “(UTP, UDP inactive)”; on P2Y1 [4], 2MeSATP > ATP > ADP; (UTP inactive); at P2X7, “BzATP > ATP > 2MeSATP > ADP; UTP inactive”; on P2Y1 [5], 2MeSATP > ADP > ATP; (UTP inactive). The “effect on co-application evoked calcium transient” value in assay [3] (P2Y selective agonists co-applied with odor) is reported as “suppressed the co-application evoked calcium transient”. In assay [1], the “agonist-evoked calcium transients in ORNs” value is “evoked calcium transients”. For the same molecule, in [6], the “agonist-evoked calcium transients in sustentacular cells” value is reported as “evoked calcium transients”.
For the molecule `Cc1nc(N=Nc2ccc(S(=O)(=O)O)cc2S(=O)(=O)O)c(COP(=O)(O)O)c(C=O)c1O` [PPADS, pyridoxalphosphate-6-azophenyl-2′,4′-disulfonic acid], in assay [1] (setting [7]), the “block of ATP-evoked calcium transients” value stood at 87±5% and the “block of UTP-evoked calcium transients” value came out at 92±3%. Besides, in [6] (setting [8]), the “block of ATP-evoked Ca2+ transients” value stood at 82±2% and the “block of UTP-evoked Ca2+ transients” value is 76±2%.
Consider `Nc1ncnc2c1ncn2[C@@H]1O[C@H](COP(=O)(O)OP(=O)(O)CP(=O)(O)O)[C@@H](O)[C@H]1O` [βγ-methylene ATP, β,γ-methylene ATP], for which, in assay [3] (co-application of 10 μM βγ-MeATP and odors, 2 slices), the “ORNs with enhanced calcium transient amplitude” value was 2/16. The “ORNs with suppressed calcium transient amplitude” value in [3] (co-application of 10 μM βγ-MeATP and odors, 6 slices) is 12/16. Also, in assay [3] (setting [9]), the “change of amplitude in cells with no effect” value is 15±1% and the “enhancement of calcium transient amplitude” value worked out at 168±44%. Also, in assay [3] (co-application of 10 μM βγ-methylene ATP and odor, 2/16 cells as printed), the “suppression of Ca2+ transient amplitude” value was found to be 42±5%. In [3] (co-application of 10 μM βγ-methylene ATP and odor, 16/16 cells), the “reduction in the average amplitude of the Ca2+ transient, overall” value turned out to be 25±11%. For the same molecule, the “agonist-evoked calcium transients in ORNs” value in assay [1] is given as “responded”. Besides, the “agonist-evoked calcium transients in sustentacular cells” value in [6] was “not the sustentacular cells”.
Consider `Nc1ncnc2c1ncn2[C@@H]1O[C@H](COP(=O)(O)O)[C@@H](O)[C@H]1O` [AMP], for which the “evoked calcium transients in olfactory epithelial slices” value in assay [1] is listed as “never observed”.
